Marks after values point to notes of the source that are not given here.
Test system: lactating dairy cattle
Assay: Combined analysis of Wisconsin and New York Studies
Format: in vivo
Set-up: DMI / NEL: unit not given here
Method: The instant example provides the combined analysis of data from the two studies (Wisconsin Study and New York Study). The two studies were combined statistically to explore effects on milk production efficiency and other variables associated with efficiency. By effectively doubling pen numbers an increase in power of the analysis was provided. Analysis of these combined datasets was performed in various ways, with the inclusion of either weekly milk yield averages or sample day milk yields to calculate milk component yields, component corrected yields, and feed efficiency. Further, the combined dataset was analyzed using data collected from all experimental weeks as well as the exclusion of data from the first three weeks of experimental treatment feeding. This was done to exclude any shifts in response variables while the rumen environment was adapting to the treatment provided. Materials & Methods: All data from both experimental locations were combined and statistically analyzed as a longitudinal experiment design through SAS version 9.4 (SAS Institute Inc., Cary, N.C.). Experimental response variables, excluding body condition score (BCS), were analyzed using PROC MIXED and […] statements to compare treatment means using the following model: γijklm=μ+[…] Where γijklm=an individual observation of the response variable analyzed, Ti=the i^th dietary treatment, Wj=the j^th experimental week, TWij=the interaction of the i^th treatment with the j^th experimental week, Lk=the k^th experimental location, Pl(i*k)=the 1th pen within the i^th treatment and k^th experimental location, WPjl(i*k)=the interaction of the j^th experimental week with the 1th pen within the i^th treatment and k^th experimental location, Cm(l*i*k)=the m^th cow within the 1th pen, the i^th treatment and k^th experimental location, BXmlik=the covariate observation obtained after three weeks of feeding a common diet to all treatment groups, and ∈ijklmn=the random error of the m^th cow within the 1th pen, the i^th treatment and the k^th location. […] Data were analyzed with pen as the experimental unit and cow as the observational unit. Dietary treatment and experimental week were considered fixed effects, whereas location, pen and cow were considered random effects. An auto-regressive covariance structure [AR(1)] was used to analyze repeated measurements (week of experimental period) with cow nested in pen within treatment as the subject. For pen level observations (DMI, production efficiency and NEL measurements), the main effect of cattle was dropped from the statistical model above. Further, pen was used as the subject of the auto-regressive repeated analysis. Degrees of freedom were adjusted using the Kenward-Roger option and multiple treatment […] comparisons were adjusted by the Tukey method. Non-parametric analysis of BCS measurements, via PROC NPAR1WAY, was performed to evaluate differences in dietary treatments at both the initiation of the experiment and during the final week of the experiments. Statistical significance was reported as P≤0.05 and tendencies as 0.05<P≤0.10. […] This analysis, deemed the 'post-acclimation' analysis, removed the first three experimental weeks of data from the experimental dataset, leaving only the fourth to ninth weeks for statistical interpretation. The statistical model was identical to the previously described approach and all data, except for body weight and NEL (due to missing data), were reanalyzed for interpretation.

[1] = 11 g/ton, experimental weeks 4 through 9
[2] = 11 g/ton, sample day, entire experiment
[3] = 11 g/ton, sample day, weeks 4 through 9
[4] = 11 g/ton, weekly averaged, entire experiment
[5] = 11 g/ton, weekly averaged, weeks 4 through 9
[6] = 14.5 g/ton, experimental weeks 4 through 9
[7] = 14.5 g/ton, sample day, entire experiment
[8] = 14.5 g/ton, sample day, weeks 4 through 9

Structure (SMILES): CC[C@@]1([C@@H]2O[C@@H]([C@H]3O[C@@](O)(CO)[C@H](C)C[C@@H]3C)C[C@@H]2C)CC[C@H]([C@]2(C)CC[C@]3(C[C@H](O)[C@@H](C)[C@@H]([C@@H](C)[C@@H](OC)[C@H](C)C(=O)O)O3)O2)O1 [monensin]
- DMI (11 g/ton, entire experiment): 59.7
- MUN (11 g/ton, entire experiment): 11.0^b mg/dL
- Milk Fat, % (11 g/ton, entire experiment): 4.45%
- Milk Fatty Acid: De novo (11 g/ton, entire experiment): 1.08^b g/100 g
- Milk Fatty Acid: Mixed (11 g/ton, entire experiment): 1.79 g/100 g
- Milk Fatty Acid: Performed (11 g/ton, entire experiment): 1.32 g/100 g
- Milk Fatty Acid: Total FA (11 g/ton, entire experiment): 4.20 g/100 g
- Milk Lactose, % (11 g/ton, entire experiment): 4.66%
- Milk Protein, % (11 g/ton, entire experiment): 3.29%
- DMI [1]: 59.5
- MUN [1]: 11.1^by mg/dL
- Milk Fat, % [1]: 4.46%
- Milk Fatty Acid: Mixed [1]: 1.79^ab g/100 g
- Milk Fatty Acid: Performed [1]: 1.33 g/100 g
- Milk Fatty Acid: Total FA [1]: 4.21 g/100 g
- Milk Lactose, % [1]: 4.65%
- Milk Protein, % [1]: 3.33%
- NEL (11 g/ton, sample day milk yield, entire experiment): 1.53
- Day of Sample Milk Yield [2]: 92.0 lb
- ECM [2]: 100.8^a lb
- ECM:Feed [2]: 1.72^a
- FCM [2]: 95.3^a lb
- FCM:Feed [2]: 1.63^a
- Fat yield [2]: 4.05^xy lb
- Lactose yield [2]: 4.30 lb
- Milk:Feed [2]: 1.56^xy
- Protein yield [2]: 3.02 lb
- SCM [2]: 95.2^xy lb
- SCM:Feed [2]: 1.59^ab
- Day of Sample Milk Yield [3]: 90.6 lb
- ECM [3]: 102.0^ab lb
- ECM:Feed [3]: 1.71^abx
- FCM [3]: 96.2^ab lb
- FCM:Feed [3]: 1.61^b
- Fat yield [3]: 3.98^ab lb
- Lactose yield [3]: 4.23 lb
- Milk:Feed [3]: 1.54^xy
- Protein yield [3]: 3.01 lb
- SCM [3]: 93.9^ab lb
- SCM:Feed [3]: 1.57^abx
- NEL (11 g/ton, weekly averaged milk yield, entire experiment): 1.53
- ECM [4]: 102.8 lb
- ECM:Feed [4]: 1.73^aby
- FCM [4]: 97.2 lb
- FCM:Feed [4]: 1.64^b
- Fat yield [4]: 4.03 lb
- Lactose yield [4]: 4.27 lb
- Milk Yield [4]: 91.5 lb
- Milk:Feed [4]: 1.57
- Protein yield [4]: 3.00 lb
- SCM [4]: 94.7^xy lb
- SCM:Feed [4]: 1.59^by
- ECM [5]: 101.6^y lb
- ECM:Feed [5]: 1.72^b
- FCM [5]: 95.9^y lb
- FCM:Feed [5]: 1.62^b
- Fat yield [5]: 3.97^ab lb
- Lactose yield [5]: 4.19 lb
- Milk Yield [5]: 90.4 lb
- Milk:Feed [5]: 1.55
- Protein yield [5]: 2.99 lb
- SCM [5]: 93.5^aby lb
- SCM:Feed [5]: 1.58^b
- DMI (14.5 g/ton, entire experiment): 59.2
- Milk Fat, % (14.5 g/ton, entire experiment): 4.47%
- Milk Fatty Acid: De novo (14.5 g/ton, entire experiment): 1.08^b g/100 g
- Milk Fatty Acid: Mixed (14.5 g/ton, entire experiment): 1.80 g/100 g
- Milk Fatty Acid: Performed (14.5 g/ton, entire experiment): 1.31 g/100 g
- Milk Fatty Acid: Total FA (14.5 g/ton, entire experiment): 4.20 g/100 g
- Milk Lactose, % (14.5 g/ton, entire experiment): 4.67%
- Milk Protein, % (14.5 g/ton, entire experiment): 3.30%
- DMI [6]: 59.5
- MUN [6]: 11.0^b mg/dL
- Milk Fat, % [6]: 4.50%
- Milk Fatty Acid: Mixed [6]: 1.82^b g/100 g
- Milk Fatty Acid: Performed [6]: 1.32 g/100 g
- Milk Fatty Acid: Total FA [6]: 4.23 g/100 g
- Milk Lactose, % [6]: 4.66%
- Milk Protein, % [6]: 3.33%
- NEL (14.5 g/ton, sample day milk yield, entire experiment): 1.55
- Day of Sample Milk Yield [7]: 92.6 lb
- ECM [7]: 104.1^b lb
- ECM:Feed [7]: 1.77^b
- FCM [7]: 98.6^b lb
- FCM:Feed [7]: 1.68^b
- Fat yield [7]: 4.09^y lb
- Lactose yield [7]: 4.34 lb
- Milk:Feed [7]: 1.61^y
- Protein yield [7]: 3.03 lb
- SCM [7]: 96.0^y lb
- SCM:Feed [7]: 1.64^b
- Day of Sample Milk Yield [8]: 91.3 lb
- ECM [8]: 103.3^b lb
- ECM:Feed [8]: 1.75^by
- FCM [8]: 97.6^b lb
- FCM:Feed [8]: 1.66^c
